The values below are quoted from earlier work in US20170273925A1 (Cumberland Pharmaceuticals Inc., priority 2014, published 2017).

The structures appear in SMILES notation.

For `CC(C)Cc1ccc(C(C)C(=O)O)cc1` (stereo not shown) [ibuprofen, 2-(4-isobutylphenyl) propionic acid], the Solubility in water result was “very poorly soluble in water”.
